Laboratory results from patent US6420147B1, “Haloalkaliphilic microorganisms” (Genencor International, Inc., priority 1991, dated 2002).
Positions of bridges follow the written chain, without caps; N, C: chain ends. Non-standard residues stand in square brackets, D forms with d. Residues, ends and D or L forms follow the SMILES beside them. *: point of attachment. Ileψ(thiazoline)Cys = CC[C@H](C)[C@H](N)C1=N[C@H](C(=O)*)CS1; dOrn = NCCC[C@@H](N)C(=O)O

Columns and labels:
Strain 931LM.4 = test: Antibiotic sensitivity (susceptibility test disks on Medium A agar); format: cell-based; conditions: antibiotic disks (contents in Appendix C), 37° C., up to 14 days
Method: (§1) A light suspension of bacteria in alkaline, saline, nutrient broth was spread on the surface of alkaline nutrient, saline agar (Medium A) and allowed to dry. Commercially available antibiotic susceptibility test disks (Oxoid or Mast Laboratories: Merseyside, U.K.) were applied to the agar surface. The bacteria were cultivated at 37° C. for up to 14 days. Clear zones around the antibiotic disks indicated sensitivity and were recorded as positive.

Strain 103Nt.4 = test: as above; format: cell-based; conditions: antibiotic disks (contents in Appendix C), 37° C., up to 14 days
Method: as §1

Strain 86M.4 = test: as above; format: cell-based; conditions: antibiotic disks (contents in Appendix C), 37° C., up to 14 days
Method: as §1

Strain 93dLM.4 = test: as above; format: cell-based; conditions: antibiotic disks (contents in Appendix C), 37° C., up to 14 days
Method: as §1

Strain 95LM.4 = test: as above; format: cell-based; conditions: antibiotic disks (contents in Appendix C), 37° C., up to 14 days
Method: as §1

Strain 98Nt.4 = test: as above; format: cell-based; conditions: antibiotic disks (contents in Appendix C), 37° C., up to 14 days
Method: as §1

[1] = test system: Cluster 1 haloalkaliphilic bacteria; test: Antibiotic sensitivity, distribution of positive characters; format: cell-based; conditions: share of strains of cluster 1 (78.5% similarity level, SSM) scored positive = clear zone around antibiotic disk; Medium A agar, 37° C., up to 14 days
Method: as §1

[2] = test system: Cluster 2 haloalkaliphilic bacteria; test: as above; format: cell-based; conditions: share of strains of cluster 2 (78.5% similarity level, SSM) scored positive = clear zone around antibiotic disk; Medium A agar, 37° C., up to 14 days
Method: as §1

[3] = test system: Cluster 3 haloalkaliphilic bacteria; test: as above; format: cell-based, haloalkaliphilic eubacteria; conditions: share of strains of cluster 3 (78.5% similarity level, SSM) scored positive = clear zone around antibiotic disk; Medium A agar, 37° C., up to 14 days
Method: as §1

[4] = test system: Cluster 4 haloalkaliphilic bacteria; test: as above; format: cell-based, haloalkaliphilic eubacteria; conditions: share of strains of cluster 4 (78.5% similarity level, SSM) scored positive = clear zone around antibiotic disk; Medium A agar, 37° C., up to 14 days
Method: as §1

Strain 31M.4 = test: Antibiotic sensitivity (susceptibility test disks on Medium A agar); format: cell-based; conditions: antibiotic disks (contents in Appendix C), 37° C., up to 14 days
Method: as §1

| Compound | Inhibition of growth by antibiotic (Strain 931LM.4) | Inhibition of growth by antibiotic (Strain 103Nt.4) | Inhibition of growth by antibiotic (Strain 86M.4) | Inhibition of growth by antibiotic (Strain 93dLM.4) | Inhibition of growth by antibiotic (Strain 95LM.4) | Inhibition of growth by antibiotic (Strain 98Nt.4) | Distribution of positive characters: antibiotic sensitivity, Cluster 1 [1] | Distribution of positive characters: antibiotic sensitivity, Cluster 2 [2] | Distribution of positive characters: antibiotic sensitivity, Cluster 3 [3] | Distribution of positive characters: antibiotic sensitivity, Cluster 4 [4] | Inhibition of growth by antibiotic (Strain 31M.4) |
| --- | --- | --- | --- | --- | --- | --- | --- | --- | --- | --- | --- |
| O=C1CN(/N=C/c2ccc([N+](=O)[O-])o2)C(=O)N1 [nitrofurantoin] | not inhibited |  |  |  |  |  |  |  |  |  |  |
| CN[C@H](CC(C)C)C(=O)N[C@H]1C(=O)N[C@@H](CC(N)=O)C(=O)N[C@H]2C(=O)N[C@H]3C(=O)N[C@H](C(=O)N[C@H](C(=O)O)c4cc(O)cc(O)c4-c4cc3ccc4O)[C@H](O)c3ccc(c(Cl)c3)Oc3cc2cc(c3O[C@@H]2O[C@H](CO)[C@@H](O)[C@H](O)[C@H]2O[C@H]2C[C@](C)(N)[C@H](O)[C@H](C)O2)Oc2ccc(cc2Cl)[C@H]1O [vancomycin] |  | not inhibited | not inhibited | inhibited | inhibited | not inhibited | 0 | 0 | 100 | 83 |  |
| polymixin |  | inhibited | not inhibited | not inhibited | not inhibited | not inhibited | 0 | 0 | 0 | 0 | not inhibited |
| CC(=O)O[C@H]1C[C@@]2(C)[C@@H](C[C@@H](O)[C@H]3[C@@]4(C)CC[C@@H](O)[C@@H](C)[C@@H]4CC[C@@]32C)/C1=C(\CCC=C(C)C)C(=O)O [fusidic acid] | inhibited | not inhibited |  |  |  |  | 14 | 9 | 0 | 17 | inhibited |
| O=C(N[C@H](CO)[C@H](O)c1ccc([N+](=O)[O-])cc1)C(Cl)Cl [chloramphenicol] | inhibited | not inhibited | not inhibited |  | inhibited | not inhibited | 0 | 0 | 100 | 100 | inhibited |
| Gentamycin |  |  |  |  |  |  | 0 | 0 | 67 | 50 |  |
| CCn1cc(C(=O)O)c(=O)c2ccc(C)nc21 [nalidixic acid] | inhibited | inhibited |  |  |  |  | 0 | 18 | 0 | 0 | inhibited |
| COc1cc(Cc2cnc(N)nc2N)cc(OC)c1OC [trimethoprim] | not inhibited | inhibited |  |  |  |  |  |  |  |  | not inhibited |
| CC[C@H](C)[C@H](N)C1=N[C@H](C(=O)N[C@@H](CC(C)C)C(=O)N[C@H](CCC(=O)O)C(=O)N[C@H](C(=O)N[C@H]2CCCCNC(=O)[C@H](CC(N)=O)NC(=O)[C@@H](CC(=O)O)NC(=O)[C@H](Cc3cnc[nH]3)NC(=O)[C@@H](Cc3ccccc3)NC(=O)[C@H]([C@@H](C)CC)NC(=O)[C@@H](CCCN)NC2=O)[C@@H](C)CC)CS1 [bacitracin] ({Ileψ(thiazoline)Cys}-L[dE]IK[dOrn]I[dF]H[dD]N; lactam 4-C) |  | not inhibited | inhibited | inhibited | inhibited | inhibited | 100 | 82 | 100 | 100 | not inhibited |
| NC[C@H]1O[C@H](O[C@H]2[C@H](O)[C@@H](O[C@H]3O[C@H](CO)[C@@H](O)[C@H](N)[C@H]3O)[C@H](N)C[C@@H]2N)[C@H](O)[C@@H](O)[C@@H]1O [kanamycin] |  |  | not inhibited | not inhibited | not inhibited | not inhibited | 0 | 0 | 0 | 17 |  |
| CO[C@H]1/C=C/O[C@@]2(C)Oc3c(C)c(O)c4c(O)c(c(/C=N/N5CCN(C)CC5)c(O)c4c3C2=O)NC(=O)/C(C)=C\C=C\[C@H](C)[C@H](O)[C@@H](C)[C@@H](O)[C@@H](C)[C@H](OC(C)=O)[C@@H]1C [rifampicin] |  | not inhibited | not inhibited |  |  |  | 14 | 64 | 67 | 83 | not inhibited |
| gentamicin | inhibited | not inhibited | not inhibited | inhibited | not inhibited | not inhibited |  |  |  |  | inhibited |
| neomycin |  | inhibited | not inhibited | not inhibited | not inhibited | not inhibited | 0 | 0 | 0 | 0 |  |
| CN(C)[C@@H]1C(O)=C(C(N)=O)C(=O)[C@@]2(O)C(O)=C3C(=O)c4c(O)cccc4[C@@](C)(O)[C@H]3C[C@@H]12 [tetracycline] |  |  | not inhibited | not inhibited | not inhibited | not inhibited | 14 | 9 | 33 | 17 |  |
| Cc1cc(NS(=O)(=O)c2ccc(N)cc2)no1 [sulphamethoxazole] |  | inhibited |  |  |  |  |  |  |  |  | not inhibited |
| CC1(C)S[C@@H]2[C@H](NC(=O)Cc3ccccc3)C(=O)N2[C@H]1C(=O)O [penicillin G] | inhibited | inhibited | not inhibited | inhibited | inhibited | not inhibited |  |  |  |  | inhibited |
| CO[C@H]1C[C@H](O[C@H]2[C@H](C)[C@@H](O[C@@H]3O[C@H](C)C[C@H](N(C)C)[C@H]3O)[C@@H](C)C[C@@]3(CO3)C(=O)[C@H](C)[C@@H](O)[C@@H](C)[C@@H](C)OC(=O)[C@@H]2C)O[C@@H](C)[C@@H]1O [oleandomycin] |  | not inhibited | not inhibited | inhibited | inhibited | not inhibited | 0 | 0 | 100 | 100 | inhibited |
| COc1cccc(OC)c1C(=O)N[C@@H]1C(=O)N2[C@@H]1SC(C)(C)[C@@H]2C(=O)O [methicillin] | inhibited | not inhibited |  |  |  |  | 0 | 0 | 0 | 0 | inhibited |
